Values joined by “and” are separate entries in the source; they are usually repeats but may differ in a detail not shown here. Equal entries are not always repeated.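 Growth conditions: 96-well plates. Treatment: test compound, 48 hours, 5 concentrations. Analysis: linear interpolation between bracketing concentrations; unreached endpoints set to highest concentration. Here, GI50 denotes the concentration required for 50% inhibition of growth. TGI: concentration producing complete growth inhibition.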
Key:
Test in all cases: NCI anticancer screen, dose series, 48 h
CAKI-1 renal = system: CAKI-1 renal
COLO 205 colon = system: COLO 205 colon
KM12 colon = system: KM12 colon
NCI/ADR-RES ovarian = system: NCI/ADR-RES ovarian
OVCAR-8 ovarian = system: OVCAR-8 ovarian
SF-295 CNS = system: SF-295 CNS
SK-MEL-5 melanoma = system: SK-MEL-5 melanoma
SN12C renal = system: SN12C renal
SNB-75 CNS = system: SNB-75 CNS
SW-620 colon = system: SW-620 colon

Structure (SMILES) | GI50 (CAKI-1 renal) [µM] | TGI (CAKI-1 renal) [µM] | GI50 (COLO 205 colon) [µM] | TGI (COLO 205 colon) | GI50 (KM12 colon) [µM] | TGI (KM12 colon) [µM] | GI50 (NCI/ADR-RES ovarian) [µM] | TGI (NCI/ADR-RES ovarian) [µM] | GI50 (OVCAR-8 ovarian) [µM] | TGI (OVCAR-8 ovarian) [µM] | GI50 (SF-295 CNS) [µM] | TGI (SF-295 CNS) [µM] | GI50 (SK-MEL-5 melanoma) [µM] | TGI (SK-MEL-5 melanoma) | GI50 (SN12C renal) [µM] | TGI (SN12C renal) [µM] | GI50 (SNB-75 CNS) [µM] | TGI (SNB-75 CNS) [µM] | GI50 (SW-620 colon) [µM] | TGI (SW-620 colon) [µM]
Cn1cc(C2=C(c3cn(CCCN=C(N)N)c4ccccc34)C(=O)NC2=O)c2ccccc21 | > 25 | > 25 | 9.76 | > 25 µM | > 25 | > 25 | > 25 | > 25 | > 25 | > 25 | > 25 | > 25 | > 25 | > 25 µM | > 19.8 | > 25 | 0.361 | > 25 | > 25 | > 25
CCC1(O)C(=O)OCc2c1cc1n(c2=O)Cc2cc3c(N)cccc3nc2-1 (configuration not stated) | – | 0.272 | – | 6.41 µM | – | 20 | – | 0.228 | – | 7.21 | – | 2.01 | – | 0.192 µM | – | 0.595 | – | 0.251 | 0.0531 | 11.7
CCCCCCCCCCC(O)C1CCC(C2CCC(C(O)CCCCC(O)CCCCCC(O)CC3=CC(C)OC3=O)O2)O1 (configuration not stated) | – | > 25 | 3.09 | 9.15 µM and > 25 µM | > 25 | > 25 | > 25 | > 25 | – | – | 2 | > 25 | 1.83 | 7.33 µM and > 25 µM | > 25 | > 25 | > 25 | > 25 | 3.93 | > 25
COc1cccc(N=Cc2c3ccccc3c(=O)n3c2oc2ccccc23)c1 | 2.92 | 11.5 | 34.5 | > 100 µM | 3.78 | 42.8 | 11.6 | 64.3 | 7.82 | 39 | 4.53 | 30.1 | 17.5 | 37.1 µM | 2.22 | 23.5 | 54.8 | > 100 | 38 | > 100
COc1ccc(C(=O)/C=C/c2cccnc2Nc2cc(OC)c(OC)c(OC)c2)cc1 | 2.42 | 14.7 | 1.95 | 6.12 µM | 0.53 | 2.79 | 1 | 6.29 | 2.2 | 11 | 1.71 | 18.9 | 2.2 | 10.6 µM | 2.43 | 9.69 | 3.4 | 17.6 | 0.349 | 1.59
CN(C)C(=S)SN(C)C(=O)Nc1ccccc1 | – | 60.5 | – | > 100 µM | – | 53.8 | – | 11.1 | – | > 93.7 | – | > 100 | – | 46.4 µM | – | 89.3 | – | > 92.1 | – | 42.6
O=C(O)c1cc(N=Nc2ccc([As](=O)(O)O)cc2)ccc1O | – | > 100 | – | > 100 µM | – | > 100 | – | > 100 | – | > 100 | – | > 100 | – | > 100 µM | – | > 100 | – | > 100 | – | > 100
CC12CCCC(CC(=O)c3[nH]c4ccccc4c31)C2 (configuration not stated) | 0.535 | > 78.8 | 1.29 | 5.3 µM | 0.641 | > 54 | 0.439 | 6.96 | 2.01 | 30.7 | 0.508 | 7.37 | 0.669 | 15 µM | 1.91 | 20.3 | 0.204 | 21.7 | 0.426 | > 100
C[C@]12CC[C@@H]3c4ccc(O)cc4CC[C@H]3[C@@H]1CC[C@@H]2NS(=O)(=O)c1ccc(C(F)(F)F)cc1 | 2.78 | 8.06 | 1.83 | 3.38 µM | 1.87 | 3.57 | 2.17 | 5.7 | 2.54 | 6.95 | 1.91 | 3.9 | 1.7 | 3.07 µM | 1.75 | 3.36 | 1.67 | 3.6 | 3.23 | 10.8
C[C@]12CC[C@@H]3c4ccc(Oc5nc(N6CC6)nc(N6CC6)n5)cc4CC[C@H]3[C@@H]1CCC2=O | 0.641 | 43.7 | 3.35 | 16.2 µM | 5.5 | 20 | 4.6 | 33.2 | 2.64 | 23.8 | 1.17 | 15.3 | 1.54 | 3.13 µM | 1.74 | 15.8 | 2.55 | 14.9 | 2.26 | 18.5
CC(=O)[O][Hg][c]1c(C)c(C)c(C)c(C)c1C | 3.02 | 7.69 | 2.7 | 7.14 µM | 4.06 | 15.3 | 7.17 | 33.4 | 1.93 | 3.88 | 1.71 | 3.76 | 1.38 | 2.74 µM | 1.53 | 2.97 | 1.75 | 3.33 | – | –
COc1ccc2cc(C(=O)/C=C/c3cccc(OC)c3OC)ccc2c1 | 11.6 | 31.9 | 20.4 | 78.5 µM | 13 | 33.1 | 6.57 | 34.3 | 8.88 | 33.6 | – | – | 14.3 | 27.4 µM | 3.83 | 14 | 18.5 | 35.6 | 9.53 | 29.1
CCCCNC(=O)NS(=O)(=O)c1ccc(N2N=C(c3ccc(C)cc3C)CC2c2ccc(N(C)C)cc2)cc1 (configuration not stated) | 3.38 | > 100 | 3.19 | 7.56 µM | 3.72 | > 100 | 4.12 | > 100 | 3.68 | > 100 | – | – | 2.22 | 5.42 µM | 3.07 | 89.5 | 3.81 | > 100 | 4.14 | > 100
